Test results published in US10160747B2, “Compounds and methods for kinase modulation, and indications therefor” (Plexxikon Inc., priority 2016, dated 2018).

How the values were obtained:
[1] = system: MOLM-14 F691L (endogenous FLT3 ITD and transfected FLT3 F691L); assay: MOLM-14 F691L cell proliferation assay (CellTiter-Glo); format: cell-based; settings: Homo sapiens, MOLM-14, 72 h; 3 d growth, GMean
Outline: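 MOLM-14 derivatives carrying D835Y or F691L, selected under escalating AC220, were seeded at 1×10^4 cells/well and exposed to an 8-point 1:3 compound series (1 to 0.00046 μM, 0.2% DMSO final) for three days at 37° C., 5% CO2. CellTiter-Glo luminescence (ATP content) versus concentration gave IC50.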

[2] = target: T1, FLT3-D835Y (Homo sapiens, UniProt P36888, D835Y); assay: FLT3-D835Y recombinant enzyme kinase assay (AlphaScreen); format: biochemical; settings: 8 pt, GMean
T1 construct: purchased Invitrogen PV3967
T1 sequence (P36888 27-993 D835Y): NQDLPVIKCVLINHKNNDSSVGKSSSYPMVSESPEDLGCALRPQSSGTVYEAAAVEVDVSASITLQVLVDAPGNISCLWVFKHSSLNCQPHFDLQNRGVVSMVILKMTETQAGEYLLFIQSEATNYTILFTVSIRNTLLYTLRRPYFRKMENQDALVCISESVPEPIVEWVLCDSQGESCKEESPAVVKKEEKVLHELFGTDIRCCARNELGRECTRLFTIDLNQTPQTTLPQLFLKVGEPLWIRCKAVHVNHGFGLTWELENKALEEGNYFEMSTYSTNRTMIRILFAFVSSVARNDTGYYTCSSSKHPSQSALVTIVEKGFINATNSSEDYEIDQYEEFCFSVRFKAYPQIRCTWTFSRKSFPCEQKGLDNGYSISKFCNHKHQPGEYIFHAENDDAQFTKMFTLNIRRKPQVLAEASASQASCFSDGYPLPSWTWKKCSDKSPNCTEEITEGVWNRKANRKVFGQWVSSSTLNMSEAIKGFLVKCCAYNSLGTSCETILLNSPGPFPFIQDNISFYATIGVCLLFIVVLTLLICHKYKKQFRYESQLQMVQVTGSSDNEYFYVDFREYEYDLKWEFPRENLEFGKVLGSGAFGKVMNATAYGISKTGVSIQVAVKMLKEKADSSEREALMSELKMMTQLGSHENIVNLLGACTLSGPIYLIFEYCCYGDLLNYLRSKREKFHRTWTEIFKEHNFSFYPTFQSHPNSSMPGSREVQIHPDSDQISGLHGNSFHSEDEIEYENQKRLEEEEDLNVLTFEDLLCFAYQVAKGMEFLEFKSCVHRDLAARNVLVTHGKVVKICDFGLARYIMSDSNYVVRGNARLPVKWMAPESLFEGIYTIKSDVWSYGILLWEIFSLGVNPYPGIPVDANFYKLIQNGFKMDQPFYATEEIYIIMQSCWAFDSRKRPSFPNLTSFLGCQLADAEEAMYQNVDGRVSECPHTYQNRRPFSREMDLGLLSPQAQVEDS
Outline: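 Recombinant kinase phosphorylates 30 nM biotinylated poly(Glu4-Tyr) peptide; ATP is 10 μM for FLT3-ITD and FLT3-D835Y, 100 μM for c-KIT. Phosphotyrosine detected by AlphaScreen (streptavidin donor, PY20 acceptor beads, 10 μg/mL), 580 nm signal after 680 nm excitation; IC50 from signal decrease.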

SMILES | IC50 [1] [µM] | IC50 [2] [µM]
Cn1cc(Nc2ncc(-c3ccc(CC(=O)Nc4ccc(S(C)(=O)=O)cc4)cc3)cn2)cn1 [Compound P-0156, 2-[4-[2-[(1-methylpyrazol-4-yl)amino]pyrimidin-5-yl]phenyl]-N-(4-methylsulfonylphenyl)acetamide] | 0.0001 to 10 | 0.0001 to 10
Cn1cc(Nc2ncc(-c3ccc(CC(=O)Nc4cc(Cl)c(C5CC5)cn4)c(F)c3)cn2)cn1 [Compound P-0107, N-(4-chloro-5-cyclopropyl-2-pyridyl)-2-[2-fluoro-4-[2-[(1-methylpyrazol-4-yl)amino]pyrimidin-5-yl]phenyl]acetamide] | 0.0001 to 10 | 0.0001 to 10
O=C(Cc1ccc(-c2cnc3[nH]c(-c4ccc(N5CCOCC5)nc4)cc3c2)cn1)Nc1ccnc(C(F)(F)F)c1 [Compound P-0183, 2-[5-[2-(6-morpholino-3-pyridyl)-1H-pyrrolo[2,3-b]pyridin-5-yl]-2-pyridyl]-N-[2-(trifluoromethyl)-4-pyridyl]acetamide] | 0.0001 to 10 | 0.0001 to 10
Cn1cc(Nc2ncc(-c3ccc(CC(=O)Nc4ccc(C(F)(F)F)c(F)c4)cc3)cn2)cn1 [Compound P-0142, N-[3-fluoro-4-(trifluoromethyl)phenyl]-2-[4-[2-[(1-methylpyrazol-4-yl)amino]pyrimidin-5-yl]phenyl]acetamide] | 0.0001 to 10 | 0.0001 to 10
O=C(Cc1ccc(-c2cnc3[nH]c(-c4ccccc4)cc3c2)cn1)Nc1ccnc(C(F)(F)F)c1 [Compound P-0005, 2-[5-(2-phenyl-1H-pyrrolo[2,3-b]pyridin-5-yl)-2-pyridyl]-N-[2-(trifluoromethyl)-4-pyridyl]acetamide] | 0.0001 to 10 | 0.0001 to 10
O=C(Cc1ccc(-c2cnc3[nH]c(-c4cnn(C(F)F)c4)cc3c2)c(F)c1)Nc1cncc(C(F)(F)F)c1 [Compound P-0197, 2-[4-[2-[1-(difluoromethyl)pyrazol-4-yl]-1H-pyrrolo[2,3-b]pyridin-5-yl]-3-fluoro-phenyl]-N-[5-(trifluoromethyl)-3-pyridyl]acetamide] | 0.0001 to 10 | 0.0001 to 10
COc1ccc(-c2cc3cc(-c4ccc(CC(=O)Nc5cncc(C(F)(F)F)c5)cc4F)cnc3[nH]2)cn1 [Compound P-0196, 2-[3-fluoro-4-[2-(6-methoxy-3-pyridyl)-1H-pyrrolo[2,3-b]pyridin-5-yl]phenyl]-N-[5-(trifluoromethyl)-3-pyridyl]acetamide] | 0.0001 to 10 | 0.0001 to 10
Cn1cc(Nc2ncc(-c3ccc(CC(=O)Nc4cccc(S(C)(=O)=O)c4)cc3)cn2)cn1 [Compound P-0155, 2-[4-[2-[(1-methylpyrazol-4-yl)amino]pyrimidin-5-yl]phenyl]-N-(3-methylsulfonylphenyl)acetamide] | 0.0001 to 10 | 0.0001 to 10
Cn1cc(Nc2ncc(-c3ccc(CC(=O)Nc4ccnc(S(C)(=O)=O)c4)cc3)cn2)cn1 [Compound P-0154, 2-[4-[2-[(1-methylpyrazol-4-yl)amino]pyrimidin-5-yl]phenyl]-N-(2-methylsulfonyl-4-pyridyl)acetamide] | 0.0001 to 10 | 0.0001 to 10
Cn1cc(Nc2ncc(-c3ccc(CC(=O)Nc4cccnc4)cc3)cn2)cn1 [Compound P-0131, 2-[4-[2-[(1-methylpyrazol-4-yl)amino]pyrimidin-5-yl]phenyl]-N-(3-pyridyl)acetamide] | 0.0001 to 10 | 0.0001 to 10
Cc1ncc(NC(=O)Cc2ccc(-c3cnc(Nc4cn(C)cn4)nc3)cc2F)cc1C(F)(F)F [Compound P-0099, 2-[2-fluoro-4-[2-[(1-methylimidazol-4-yl)amino]pyrimidin-5-yl]phenyl]-N-[6-methyl-5-(trifluoromethyl)-3-pyridyl]acetamide] | 0.0001 to 10 | 0.0001 to 10
Cn1cnc(Nc2ncc(-c3ccc(CC(=O)Nc4cc(C(C)(F)F)ccn4)c(F)c3)cn2)c1 [Compound P-0102, N-[4-(1,1-difluoroethyl)-2-pyridyl]-2-[2-fluoro-4-[2-[(1-methylimidazol-4-yl)amino]pyrimidin-5-yl]phenyl]acetamide] | 0.0001 to 10 | 0.0001 to 10

Second part, the compound after the results:

IC50 [1] [µM] | IC50 [2] [µM] | SMILES
0.0001 to 10 | 0.0001 to 10 | Cn1cc(Nc2ncc(-c3ccc(CC(=O)Nc4cncc(C(C)(F)F)c4)cc3)cn2)cn1 [Compound P-0144, N-[5-(1,1-difluoroethyl)-3-pyridyl]-2-[4-[2-[(1-methylpyrazol-4-yl)amino]pyrimidin-5-yl]phenyl]acetamide]
0.0001 to 10 | 0.0001 to 10 | Cn1cnc(Nc2ncc(-c3ccc(CC(=O)Nc4cncc(C(C)(F)F)c4)c(F)c3)cn2)c1 [Compound P-0103, N-[5-(1,1-difluoroethyl)-3-pyridyl]-2-[2-fluoro-4-[2-[(1-methylimidazol-4-yl)amino]pyrimidin-5-yl]phenyl]acetamide]
0.0001 to 10 | 0.0001 to 10 | Cn1cnc(Nc2ncc(-c3ccc(CC(=O)Nc4cc(C(F)(F)F)ccn4)c(F)c3)cn2)c1 [Compound P-0096, 2-[2-fluoro-4-[2-[(1-methylimidazol-4-yl)amino]pyrimidin-5-yl]phenyl]-N-[4-(trifluoromethyl)-2-pyridyl]acetamide]
0.0001 to 10 | 0.0001 to 10 | Cc1ncc(NC(=O)Cc2ccc(-c3cnc(Nc4cnn(C)c4)nc3)cc2)cc1C(F)(F)F [Compound P-0140, 2-[4-[2-[(1-methylpyrazol-4-yl)amino]pyrimidin-5-yl]phenyl]-N-[6-methyl-5-(trifluoromethyl)-3-pyridyl]acetamide]
0.0001 to 10 | 0.0001 to 10 | Cn1cnc(Nc2ncc(-c3ccc(CC(=O)Nc4cnc(F)c(C(C)(F)F)c4)cc3)cn2)c1 [Compound P-0168, N-[5-(1,1-difluoroethyl)-6-fluoro-3-pyridyl]-2-[4-[2-[(1-methylimidazol-4-yl)amino]pyrimidin-5-yl]phenyl]acetamide]
0.0001 to 10 | 0.0001 to 10 | Cn1cnc(Nc2ncc(-c3ccc(CC(=O)Nc4cncc(C(F)(F)F)c4)cc3)cn2)c1 [Compound P-0167]
0.0001 to 10 | 0.0001 to 10 | Cn1cc(Nc2ncc(-c3ccc(CC(=O)NCc4cncc(C(F)(F)F)c4)cc3)cn2)cn1 [Compound P-0161, 2-[4-[2-[(1-methylpyrazol-4-yl)amino]pyrimidin-5-yl]phenyl]-N-[[5-(trifluoromethyl)-3-pyridyl]methyl]acetamide]
0.0001 to 10 | 0.0001 to 10 | Cn1cc(Nc2ncc(-c3ccc(CC(=O)Nc4ccc(C(F)(F)F)nc4)cc3)cn2)cn1 [Compound P-0095, 2-[4-[2-[(1-methylpyrazol-4-yl)amino]pyrimidin-5-yl]phenyl]-N-[6-(trifluoromethyl)-3-pyridyl]acetamide]
0.0001 to 10 | 0.0001 to 10 | Cn1cc(Nc2ncc(-c3ccc(CC(=O)Nc4cccc(C(F)(F)F)n4)cc3)cn2)cn1 [Compound P-0152, 2-[4-[2-[(1-methylpyrazol-4-yl)amino]pyrimidin-5-yl]phenyl]-N-[6-(trifluoromethyl)-2-pyridyl]acetamide]
0.0001 to 10 | 0.0001 to 10 | COc1ncc(NC(=O)Cc2ccc(-c3cnc(Nc4cnn(C)c4)nc3)cc2)cc1C(F)(F)F [Compound P-0138, N-[6-methoxy-5-(trifluoromethyl)-3-pyridyl]-2-[4-[2-[(1-methylpyrazol-4-yl)amino]pyrimidin-5-yl]phenyl]acetamide]
0.0001 to 10 | 0.0001 to 10 | Cn1cc(Nc2ncc(-c3ccc(CC(=O)Nc4cncc(C(F)(F)F)c4)cc3)cn2)cn1 [Compound P-0136, 2-[4-[2-[(1-methylpyrazol-4-yl)amino]pyrimidin-5-yl]phenyl]-N-[5-(trifluoromethyl)-3-pyridyl]acetamide]
0.0001 to 10 | 0.0001 to 10 | COCCn1cc(Nc2ncc(-c3ccc(CC(=O)Nc4cncc(C(F)(F)F)c4)cc3)cn2)cn1 [Compound P-0178, 2-[4-[2-[[1-(2-methoxyethyl)pyrazol-4-yl]amino]pyrimidin-5-yl]phenyl]-N-[5-(trifluoromethyl)-3-pyridyl]acetamide]
0.0001 to 10 | 0.0001 to 10 | CCn1cc(Nc2ncc(-c3ccc(CC(=O)Nc4cnc(Cl)c(C(F)(F)F)c4)cc3)cn2)cn1 [Compound P-0165, N-[6-chloro-5-(trifluoromethyl)-3-pyridyl]-2-[4-[2-[(1-ethylpyrazol-4-yl)amino]pyrimidin-5-yl]phenyl]acetamide]
